Data as given in ChEMBL document CHEMBL5226311, “Recent Progress on Tubulin Inhibitors with Dual Targeting Capabilities for Cancer Therapy” (J Med Chem, 2021).

Columns and labels:
DLD-1 = test: Antiproliferative activity against MTAs-resistant human DLD-1 cells overexpressing P-gp assessed as cell growth inhibition; type: functional, cell-based
[1] = Antiproliferative activity against human U87 cells assessed as cell growth inhibition; type: functional, cell-based, U-87MG ATCC; conditions: U-87 MG
[2] = Antiproliferative activity against human U87MG Human EGFR vIII cells assessed as cell growth inhibition; type: functional, cell-based
A 172 = test: Antiproliferative activity against human A-172 cells assessed as cell growth inhibition; type: functional, cell-based
U-251 = test: Antiproliferative activity against human U-251 cells assessed as cell growth inhibition; type: functional, cell-based
NCI-H460 [3] = test: Antitumor activity against human NCI-H460 cells xenografted in mouse assessed as inhibition of tumor growth at 30 mg/kg relative to control; type: functional; conditions: read-out: TGI
NCI-H460 [4] = test: Antiproliferative activity against human NCI-H460 cells expressing TaxR assessed as cell growth inhibition; type: functional, cell-based
NCI-H460 [5] = test: Antiproliferative activity against human NCI-H460 cells assessed as cell growth inhibition; type: functional, cell-based
NCI-H460 [6] = test: Antitumor activity against human NCI-H460 cells expressing TaxR xenografted in mouse assessed as inhibition of tumor growth at 30 mg/kg relative to control; type: functional; conditions: read-out: TGI
HCT-116 [7] = test: Antiproliferative activity against human HCT-116 cells assessed as cell growth inhibition measured after 72 hrs by MTT assay; type: functional, cell-based; conditions: HCT-116, 72 h
HT-29 = test: Antiproliferative activity against human HT-29 cells assessed as cell growth inhibition measured after 72 hrs by MTT assay; type: functional, cell-based; conditions: HT-29, 72 h
NCI-H460 [8] = test: Antiproliferative activity against human NCI-H460 cells assessed as cell growth inhibition measured after 72 hrs by MTT assay; type: functional, cell-based; conditions: NCI-H460, 72 h
A549 [9] = test: Antiproliferative activity against human A549 cells assessed as cell growth inhibition measured after 72 hrs by MTT assay; type: functional, cell-based; conditions: A549, 72 h
A2780S = test: Antiproliferative activity against human A2780S cells assessed as cell growth inhibition measured after 72 hrs by MTT assay; type: functional, cell-based
SK-OV-3 = test: Antiproliferative activity against human SK-OV-3 cells assessed as cell growth inhibition measured after 72 hrs by MTT assay; type: functional, cell-based; conditions: SK-OV-3, 72 h
MCF7 [10] = test: Antiproliferative activity against human MCF7 cells assessed as cell growth inhibition measured after 72 hrs by MTT assay; type: functional, cell-based; conditions: MCF7, 72 h
MDA-MB-231 = test: Antiproliferative activity against human MDA-MB-231 cells assessed as cell growth inhibition measured after 72 hrs by MTT assay; type: functional, cell-based; conditions: MDA-MB-231, 72 h
A-375 = test: Antiproliferative activity against human A-375 cells assessed as cell growth inhibition measured after 72 hrs by MTT assay; type: functional, cell-based; conditions: A-375, 72 h
HepG2 = test: Antiproliferative activity against human HepG2 cells assessed as cell growth inhibition measured after 72 hrs by MTT assay; type: functional, cell-based; conditions: HepG2, 72 h
MM1.S = test: Antiproliferative activity against human MM1.S cells assessed as cell growth inhibition measured after 72 hrs by MTT assay; type: functional, cell-based
RPMI-8226 = test: Antiproliferative activity against human RPMI-8226 cells assessed as cell growth inhibition measured after 72 hrs by MTT assay; type: functional, cell-based; conditions: RPMI-8226, 72 h
[11] = Antiproliferative activity against human ARD cells assessed as cell growth inhibition measured after 72 hrs by MTT assay; type: functional, cell-based
U-266 = test: Antiproliferative activity against human U-266 cells assessed as cell growth inhibition measured after 72 hrs by MTT assay; type: functional, cell-based; conditions: U-266, 72 h
Ramos = test: Antiproliferative activity against human Ramos cells assessed as cell growth inhibition measured after 72 hrs by MTT assay; type: functional, cell-based
[12] = Antiproliferative activity against human HBL1 cells assessed as cell growth inhibition measured after 72 hrs by MTT assay; type: functional, cell-based; conditions: HBL1, 72 h
JeKo-1 = test: Antiproliferative activity against human JeKo-1 cells assessed as cell growth inhibition measured after 72 hrs by MTT assay; type: functional, cell-based; conditions: JeKo-1, 72 h
[13] = Antiproliferative activity against human LAMA84-s cells assessed as cell growth inhibition measured after 72 hrs by MTT assay; type: functional, cell-based
K562 [14] = test: Antiproliferative activity against human K562 cells assessed as cell growth inhibition measured after 72 hrs by MTT assay; type: functional, cell-based; conditions: K562, 72 h
MV4-11 = test: Antiproliferative activity against human MV4-11 cells assessed as cell growth inhibition measured after 72 hrs by MTT assay; type: functional, cell-based; conditions: MV4-11, 72 h
[15] = Antiproliferative activity against human KB/VCR cells assessed as cell growth inhibition; type: functional, cell-based
MES-SA/Dx5 = test: Antiproliferative activity against human MES-SA/Dx5 cells assessed as cell growth inhibition; type: functional, cell-based
HL60/MX2 = test: Antiproliferative activity against human HL60/MX2 cells assessed as cell growth inhibition; type: functional, cell-based
KB [16] = test: Antiproliferative activity against human KB cells assessed as cell growth inhibition; type: functional, cell-based
KB [17] = test: Antiproliferative activity against vincristine-resistant human KB cells assessed as cell growth inhibition; type: functional, cell-based
KB [18] = test: Antiproliferative activity against etoposide-resistant human KB cells assessed as cell growth inhibition; type: functional, cell-based
EA.hy 926 = test: Antiproliferative activity against human EA.hy 926 cells assessed as cell growth inhibition; type: functional, cell-based
Tubulin [19] = test: Inhibition of tubulin depolymerization (unknown origin); type: protein-complex assay, Homo sapiens
HONE1 cell line = test: Antiproliferative activity against human HONE1 cell line assessed as cell growth inhibition; type: functional, cell-based
HCT-116 [20] = test: Antiproliferative activity against human HCT-116 cells assessed as cell growth inhibition; type: functional, cell-based
A549 [21] = test: Antiproliferative activity against human A549 cells assessed as cell growth inhibition; type: functional, cell-based
MCF7 [22] = test: Antiproliferative activity against human MCF7 cells assessed as cell growth inhibition; type: functional, cell-based
[23] = target: Epidermal growth factor receptor (Homo sapiens, UniProt P00533); test: Inhibition of EGFR (unknown origin)
[24] = target: Vascular endothelial growth factor receptor 2 (Homo sapiens, UniProt P35968); test: Inhibition of VEGFR2 (unknown origin)
MDA-MB-435 = test: Antiproliferative activity against human MDA-MB-435 cells assessed as cell growth inhibition; type: functional
Tubulin [25] = test: Inhibition of tubulin polymerization (unknown origin); type: protein-complex assay, Homo sapiens
HL-60(TB) = test: Antiproliferative activity against human HL-60(TB) cells assessed as cell growth inhibition; type: functional
K562 [26] = test: Antiproliferative activity against human K562 cells assessed as cell growth inhibition; type: functional
CCRF-CEM = test: Antiproliferative activity against human CCRF-CEM cells assessed as cell growth inhibition; type: functional
NCI-H522 = test: Antiproliferative activity against human NCI-H522 cells assessed as cell growth inhibition; type: functional
NCI-H322M = test: Antiproliferative activity against human NCI-H322M cells assessed as cell growth inhibition; type: functional
KM12 = test: Antiproliferative activity against human KM12 cells assessed as cell growth inhibition; type: functional
SW-620 = test: Antiproliferative activity against human SW-620 cells assessed as cell growth inhibition; type: functional
HCT-15 = test: Antiproliferative activity against human HCT-15 cells assessed as cell growth inhibition; type: functional
M14 = test: Antiproliferative activity against human M14 cells assessed as cell growth inhibition; type: functional
LOX IMVI = test: Antiproliferative activity against human LOX IMVI cells assessed as cell growth inhibition; type: functional
OVCAR-3 = test: Antiproliferative activity against human OVCAR-3 cells assessed as cell growth inhibition; type: functional
NCI/ADR-RES = test: Antiproliferative activity against human NCI/ADR-RES cells assessed as cell growth inhibition; type: functional
OVCAR-8 = test: Antiproliferative activity against human OVCAR-8 cells assessed as cell growth inhibition; type: functional
A498 = test: Antiproliferative activity against human A498 cells assessed as cell growth inhibition; type: functional
RXF 393 = test: Antiproliferative activity against human RXF 393 cells assessed as cell growth inhibition; type: functional
SN12C = test: Antiproliferative activity against human SN12C cells assessed as cell growth inhibition; type: functional
PC-3 = test: Antiproliferative activity against human PC-3 cells assessed as cell growth inhibition; type: functional
DU-145 = test: Antiproliferative activity against human DU-145 cells assessed as cell growth inhibition; type: functional
SF-539 = test: Antiproliferative activity against human SF-539 cells assessed as cell growth inhibition; type: functional
SNB-75 = test: Antiproliferative activity against human SNB-75 cells assessed as cell growth inhibition; type: functional
SF-295 = test: Antiproliferative activity against human SF-295 cells assessed as cell growth inhibition; type: functional
Hs-578T = test: Antiproliferative activity against human Hs-578T cells assessed as cell growth inhibition; type: functional
BT-549 = test: Antiproliferative activity against human BT-549 cells assessed as cell growth inhibition; type: functional

Vascular endothelial growth factor receptor 2, sequence (P35968 whole entry): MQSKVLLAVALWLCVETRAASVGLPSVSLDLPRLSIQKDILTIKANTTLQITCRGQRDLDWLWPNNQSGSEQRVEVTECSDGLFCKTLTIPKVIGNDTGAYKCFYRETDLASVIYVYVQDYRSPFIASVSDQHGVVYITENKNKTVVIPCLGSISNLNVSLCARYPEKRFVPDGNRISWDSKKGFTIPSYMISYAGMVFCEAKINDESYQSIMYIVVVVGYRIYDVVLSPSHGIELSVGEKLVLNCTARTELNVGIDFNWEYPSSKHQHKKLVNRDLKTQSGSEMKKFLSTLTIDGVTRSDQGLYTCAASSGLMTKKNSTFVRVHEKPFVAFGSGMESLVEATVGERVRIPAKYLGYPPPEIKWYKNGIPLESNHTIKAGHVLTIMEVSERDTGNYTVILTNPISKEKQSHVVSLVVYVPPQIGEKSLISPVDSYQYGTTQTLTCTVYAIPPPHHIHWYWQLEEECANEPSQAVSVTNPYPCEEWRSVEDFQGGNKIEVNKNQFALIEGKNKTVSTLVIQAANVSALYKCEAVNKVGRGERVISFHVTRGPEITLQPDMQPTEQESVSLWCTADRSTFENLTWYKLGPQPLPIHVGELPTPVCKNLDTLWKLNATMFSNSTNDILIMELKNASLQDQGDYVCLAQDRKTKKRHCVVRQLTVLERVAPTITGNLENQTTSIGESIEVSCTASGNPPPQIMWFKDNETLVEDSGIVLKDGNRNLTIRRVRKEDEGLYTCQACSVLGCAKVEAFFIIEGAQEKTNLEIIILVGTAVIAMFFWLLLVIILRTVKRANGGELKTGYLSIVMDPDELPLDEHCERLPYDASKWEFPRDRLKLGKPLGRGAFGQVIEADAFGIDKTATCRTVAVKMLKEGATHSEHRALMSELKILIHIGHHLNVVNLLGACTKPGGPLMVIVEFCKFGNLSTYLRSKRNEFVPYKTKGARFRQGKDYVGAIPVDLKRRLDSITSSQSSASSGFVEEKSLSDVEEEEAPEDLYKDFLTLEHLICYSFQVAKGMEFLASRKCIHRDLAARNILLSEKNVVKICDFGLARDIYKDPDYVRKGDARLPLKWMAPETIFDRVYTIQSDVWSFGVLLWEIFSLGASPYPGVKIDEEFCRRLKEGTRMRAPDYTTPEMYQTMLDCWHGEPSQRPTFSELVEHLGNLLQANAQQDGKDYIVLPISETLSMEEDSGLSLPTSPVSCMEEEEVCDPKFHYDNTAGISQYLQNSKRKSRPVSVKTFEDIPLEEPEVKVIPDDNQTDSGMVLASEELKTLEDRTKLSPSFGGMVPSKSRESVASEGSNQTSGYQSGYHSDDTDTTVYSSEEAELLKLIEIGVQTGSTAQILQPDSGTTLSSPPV
Epidermal growth factor receptor, sequence (P00533 whole entry): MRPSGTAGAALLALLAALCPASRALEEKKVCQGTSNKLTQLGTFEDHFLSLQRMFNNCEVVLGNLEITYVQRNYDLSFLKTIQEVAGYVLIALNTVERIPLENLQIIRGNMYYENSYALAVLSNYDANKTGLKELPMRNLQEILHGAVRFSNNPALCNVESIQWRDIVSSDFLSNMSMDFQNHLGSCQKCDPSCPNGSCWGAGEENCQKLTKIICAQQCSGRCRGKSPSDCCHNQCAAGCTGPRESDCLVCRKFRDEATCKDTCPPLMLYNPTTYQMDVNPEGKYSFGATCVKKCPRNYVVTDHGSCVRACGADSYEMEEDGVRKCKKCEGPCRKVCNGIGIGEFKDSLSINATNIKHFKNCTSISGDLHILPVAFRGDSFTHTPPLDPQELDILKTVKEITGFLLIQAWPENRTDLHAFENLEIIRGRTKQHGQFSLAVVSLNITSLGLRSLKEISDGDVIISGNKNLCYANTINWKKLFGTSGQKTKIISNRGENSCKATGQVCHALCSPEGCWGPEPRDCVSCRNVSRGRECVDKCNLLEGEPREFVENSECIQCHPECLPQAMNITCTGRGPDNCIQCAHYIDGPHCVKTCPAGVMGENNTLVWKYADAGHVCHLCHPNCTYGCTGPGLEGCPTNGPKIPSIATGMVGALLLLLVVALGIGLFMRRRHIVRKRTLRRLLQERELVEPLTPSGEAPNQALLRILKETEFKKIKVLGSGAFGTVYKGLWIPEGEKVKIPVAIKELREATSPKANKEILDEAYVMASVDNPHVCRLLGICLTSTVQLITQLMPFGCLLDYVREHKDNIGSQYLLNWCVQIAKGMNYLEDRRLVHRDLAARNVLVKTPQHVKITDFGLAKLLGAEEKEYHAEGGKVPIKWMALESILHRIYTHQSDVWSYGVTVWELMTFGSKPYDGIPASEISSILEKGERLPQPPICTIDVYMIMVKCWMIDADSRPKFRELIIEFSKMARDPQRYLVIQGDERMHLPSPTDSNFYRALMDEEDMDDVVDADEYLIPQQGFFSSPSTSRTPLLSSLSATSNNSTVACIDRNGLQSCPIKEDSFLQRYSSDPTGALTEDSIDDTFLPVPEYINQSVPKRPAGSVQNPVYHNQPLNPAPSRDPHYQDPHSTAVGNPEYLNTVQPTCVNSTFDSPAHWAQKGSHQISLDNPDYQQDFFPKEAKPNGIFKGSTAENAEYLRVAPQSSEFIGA

CCCCC(C#CC(=O)OC)O/C=C/C(=O)OC (stereo unspecified)
IC50 (DLD-1): 450 nM

O=C(CCCc1ccc(-c2ccccc2F)cc1)Nc1ccc(O)cc1
EC50 [1]: 600 nM | EC50 [2]: 600 nM | EC50 (A 172): 600 nM | EC50 (U-251): 600 nM

CN(C)c1ccc(/C=C2/SC(=Nc3ccccc3Cl)NC2=O)cc1
inhibition in vivo at 30 mg/kg (NCI-H460 [3]): 62.4% | IC50 (NCI-H460 [4]): 800 nM | IC50 (NCI-H460 [5]): 700 nM | inhibition in vivo at 30 mg/kg (NCI-H460 [6]): 60.4%

COc1ccc(N(C)c2nc(C)nc3ccccc23)cc1OCCCC(=O)NO
IC50 (HCT-116 [7]): 31 nM | IC50 (HT-29): 31 nM | IC50 (NCI-H460 [8]): 31 nM | IC50 (A549 [9]): 31 nM | IC50 (A2780S): 31 nM | IC50 (SK-OV-3): 31 nM | IC50 (MCF7 [10]): 31 nM | IC50 (MDA-MB-231): 31 nM | IC50 (A-375): 31 nM | IC50 (HepG2): 31 nM | IC50 (MM1.S): 31 nM | IC50 (RPMI-8226): 31 nM | IC50 [11]: 31 nM | IC50 (U-266): 31 nM | IC50 (Ramos): 31 nM | IC50 [12]: 31 nM | IC50 (JeKo-1): 31 nM | IC50 [13]: 31 nM | IC50 (K562 [14]): 31 nM | IC50 (MV4-11): 31 nM

COc1ccc(O)c(C(=O)c2cnc3[nH]c4ccccc4c3c2)c1
IC50 [15]: 400 nM | IC50 (MES-SA/Dx5): 160 nM | IC50 (HL60/MX2): 320 nM

COc1ccc(S(=O)(=O)Nc2ccccc2NCc2ccc(C(=O)Nc3ccccc3N)cc2)cc1
IC50 (KB [16]): 12 nM | IC50 (KB [17]): 12 nM | IC50 (KB [18]): 22 nM

COc1ccc(-c2ocnc2-c2cc(Br)c(OC)c(OC)c2)cc1OCCCC(=O)NO
IC50 (EA.hy 926): 18 nM

COc1cc(C(=O)c2ccc3c(n2)C(=O)C(N2CCCC2)=CC3=O)cc(OC)c1OC
IC50 (KB [16]): 70 nM | IC50 (Tubulin [19]): 5.9 µM | IC50 (HONE1 cell line): 70 nM | IC50 (HCT-116 [20]): 70 nM

COC(=O)NCCc1c(C(=O)c2cc(C(F)(F)F)cc(C(F)(F)F)c2)[nH]c2ccccc12
IC50 (A549 [21]): 2010 nM | IC50 (MCF7 [22]): 1300 nM

COc1ccc(-c2cc(=O)oc3c(O)c(O)ccc23)cc1O
IC50 [23]: 4.9 µM | IC50 [24]: 5.5 µM

COc1ccn2c(C(C)=O)cc(C(=O)c3ccc4c(c3)Sc3ccccc3N4)c2c1
GI50 (MDA-MB-435): 19 nM

COc1ccc(C(=O)c2cc(C)c(OC)c(C)c2)cc1OC(=O)CCl
IC50 (Tubulin [25]): 1300 nM | GI50 (A549 [21]): < 10 nM | GI50 (MCF7 [22]): < 10 nM | GI50 (HL-60(TB)): < 10 nM | GI50 (K562 [26]): < 10 nM | GI50 (CCRF-CEM): < 10 nM | GI50 (NCI-H522): < 10 nM | GI50 (NCI-H322M): < 10 nM | GI50 (KM12): < 10 nM | GI50 (SW-620): < 10 nM | GI50 (HCT-15): < 10 nM | GI50 (M14): < 10 nM | GI50 (MDA-MB-435): < 10 nM | GI50 (LOX IMVI): < 10 nM | GI50 (OVCAR-3): < 10 nM | GI50 (NCI/ADR-RES): < 10 nM | GI50 (OVCAR-8): < 10 nM | GI50 (A498): < 10 nM | GI50 (RXF 393): < 10 nM | GI50 (SN12C): < 10 nM | GI50 (PC-3): < 10 nM | GI50 (DU-145): < 10 nM | GI50 (SF-539): < 10 nM | GI50 (SNB-75): < 10 nM | GI50 (SF-295): < 10 nM | GI50 (Hs-578T): < 10 nM | GI50 (BT-549): < 10 nM

COC(=O)NCCc1c(C(=O)c2ccccc2[N+](=O)[O-])[nH]c2ccccc12
IC50 (A549 [21]): 740 nM | IC50 (MCF7 [22]): 1590 nM

COc1ccc(/C=C\c2cc(OC)c(OC)c(OC)c2)cc1O [COMBRETASTATIN A4]
IC50 (EA.hy 926): 11 nM

CC(=O)O[C@H]1C(=O)[C@@]2(C)[C@H]([C@H](OC(=O)c3ccccc3)[C@]3(O)C[C@H](OC(=O)[C@H](O)[C@@H](NC(=O)c4ccccc4)c4ccccc4)C(C)=C1C3(C)C)[C@]1(OC(C)=O)CO[C@@H]1C[C@@H]2O [PACLITAXEL]
inhibition in vivo at 30 mg/kg (NCI-H460 [6]): 40%
